Measured values taken from patent US5407918A, “16-membered macrolide derivatives and process for producing the same” (Meiji Seika Kaisha, Ltd., priority 1992, dated 1995).
Converted amounts (≈) assume the structure as drawn. Like-named read-outs stand apart in the source and are kept apart here.

Columns and labels:
[1] = mice; EP-A-560,147; cited from earlier work
[2] = tested on: some bacteria belonging to the genus Streptococcus or Branhamella; details: cited from earlier work
esterase = details: EP-A-560,147 derivatives; cited from earlier work
B. catarrhalis W-0500 = assay: MIC, agar plate dilution method; assay type: cell-based; details: Moraxella catarrhalis, W0500, 37° C., 20 hours, read-out: Antimicrobial activity (MIC)
Procedure: (§1) Antimicrobial activities of the compounds of the present invention were determined by measuring minimum inhibitory concentration (MIC). Minimum inhibitory concentration was determined by the agar plate dilution method in the following manner.
(§2) Test strains were subjected to seed culture using Sensitivity test broth (STB, Nissui Pharmaceutical) except that the strains belonging to the genus Streptococcus, Branhamella and Haemophilus were cultured on blood agar plate. A 5 μl portion of cell suspension of the test strains having about 10^6 CFU/ml was inoculated into Sensitivity disk agar (SDA, Nissui Pharmaceutical) supplemented with 5% horse blood and incubated at 37° C. for 20 hours. Then, MIC was measured. For comparison, MDM and leucomycin A7 (LM-A7) was also tested.

B. catarrhalis W-0506 = assay: MIC, agar plate dilution method; assay type: cell-based; details: Moraxella catarrhalis, W0506, 37° C., 20 hours, read-out: Antimicrobial activity (MIC)
Procedure: as §1, §2

E. coli NIHJ JC-2 = assay: MIC, agar plate dilution method; assay type: cell-based; details: Escherichia coli, NIHJJC2; E. coli NIHJ JC-2; 37° C., 20 hours; read-out: Antimicrobial activity (MIC)
Procedure: as §1, §2

E. faecalis W-73 = assay: MIC, agar plate dilution method; assay type: cell-based; details: Enterococcus faecalis, W73; E. faecalis W-73; 37° C., 20 hours; read-out: Antimicrobial activity (MIC)
Procedure: as §1, §2

H. influenzae 9334 = assay: MIC, agar plate dilution method; assay type: cell-based; details: Haemophilus influenzae; H. influenzae 9334; 37° C., 20 hours; read-out: Antimicrobial activity (MIC)
Procedure: as §1, §2

K. pneumoniae PC1602 = assay: MIC, agar plate dilution method; assay type: cell-based; details: Klebsiella pneumoniae, 37° C., 20 hours, read-out: Antimicrobial activity (MIC)
Procedure: as §1, §2

M. luteus ATCC9341 = assay: MIC, agar plate dilution method; assay type: cell-based; details: Micrococcus luteus, read-out: Antimicrobial activity (MIC)
Procedure: as §1, §2

M. pneumoniae FH-P24 = assay: MIC, agar plate dilution method; assay type: cell-based; details: Mycoplasmoides pneumoniae, FHP24, 20 h, read-out: Antimicrobial activity (MIC)
Procedure: as §1, §2

M. pneumoniae FH = assay: MIC, agar plate dilution method; assay type: cell-based; details: Mycoplasmoides pneumoniae, 20 h, read-out: Antimicrobial activity (MIC)
Procedure: as §1, §2

M. pneumoniae Mac = assay: MIC, agar plate dilution method; assay type: cell-based; details: Mycoplasmoides pneumoniae, 20 h, read-out: Antimicrobial activity (MIC)
Procedure: as §1, §2

M. pneumoniae Numata = assay: MIC, agar plate dilution method; assay type: cell-based; details: Mycoplasmoides pneumoniae, 20 h, read-out: Antimicrobial activity (MIC)
Procedure: as §1, §2

S. Pneumoniae Type 1 = assay: MIC, agar plate dilution method; assay type: cell-based; details: Streptococcus pneumoniae; S. Pneumoniae Type 1; 37° C., 20 hours; read-out: Antimicrobial activity (MIC)
Procedure: as §1, §2

S. Pyogenes Cook = assay: MIC, agar plate dilution method; assay type: cell-based; details: Streptococcus pyogenes, 37° C., 20 hours, read-out: Antimicrobial activity (MIC)
Procedure: as §1, §2

S. aureus 209P JC-1 = assay: MIC, agar plate dilution method; assay type: cell-based; details: Staphylococcus aureus; S. aureus 209P JC-1; 37° C., 20 hours; read-out: Antimicrobial activity (MIC)
Procedure: as §1, §2

S. aureus M126 = assay: MIC, agar plate dilution method; assay type: cell-based; details: Staphylococcus aureus; S. aureus M126; 37° C., 20 hours; read-out: Antimicrobial activity (MIC)
Procedure: as §1, §2

S. aureus M133 = assay: MIC, agar plate dilution method; assay type: cell-based; details: Staphylococcus aureus, 37° C., 20 hours, read-out: Antimicrobial activity (MIC)
Procedure: as §1, §2

S. aureus MS15009/pMS98 = assay: MIC, agar plate dilution method; assay type: cell-based; details: Staphylococcus aureus, MS15009/PMS98, 20 h, read-out: Antimicrobial activity (MIC)
Procedure: as §1, §2

S. aureus MS15009/pMS99 = assay: MIC, agar plate dilution method; assay type: cell-based; details: Staphylococcus aureus, MS15009/PMS99, 20 h, read-out: Antimicrobial activity (MIC)
Procedure: as §1, §2

S. aureus MS15026 = assay: MIC, agar plate dilution method; assay type: cell-based; details: Staphylococcus aureus, 37° C., 20 hours, read-out: Antimicrobial activity (MIC)
Procedure: as §1, §2

S. aureus MS15027 = assay: MIC, agar plate dilution method; assay type: cell-based; details: Staphylococcus aureus, 37° C., 20 hours, read-out: Antimicrobial activity (MIC)
Procedure: as §1, §2

S. epidermidis ATCC14990 = assay: MIC, agar plate dilution method; assay type: cell-based; details: Staphylococcus epidermidis, 37° C., 20 hours, read-out: Antimicrobial activity (MIC)
Procedure: as §1, §2

S. pneumoniae IP692 = assay: MIC, agar plate dilution method; assay type: cell-based; details: Streptococcus pneumoniae, read-out: Antimicrobial activity (MIC)
Procedure: as §1, §2

[3] = tested on: Gram-positive bacteria and Mycoplasma; assay: antimicrobial activity in vitro (summary in words); assay type: cell-based; details: from Table 1
Procedure: as §1, §2

metabolism in plasma = assay type: in vitro ADME, rat; details: no free hydroxyl group in the neutral sugar moiety formed
Procedure: Each test compound and 50 μl of a methanol solution (10,000 γ) were added to 950 μl of thawed rat plasma and the resulting mixture was incubated at 37° C. for 24 hours. After completion of the incubation, a 20 μl portion of the mixture was added to 980 μl of 0.05M phosphate buffer (pH 7.6). A 20 μl portion of the sample solution was used to measure antimicrobial activity against M. luteus. Separately, the calibration curve was prepared by using a methanol solution containing each test compound. The starting activity of each compound in the plasma was referred to as 100%.

[4] = concentration in serum after oral administration to mice, bioassay; assay type: in vivo, mice (Jcl:ICR); details: mouse, serum, 200 mg/kg, M. luteus bioassay, read-out: maximum concentration in the serum
Procedure: The compound (3) was mixed with a 0.2% solution of carboxymethylcellulose to give a concentration of 4 mg/ml and a 1 ml portion of the resulting emulsion was orally administered to 4-week-old male Jcl:ICR mice. Blood was collected from armpit of the mice 30, 60, 120, 240 and 360 minutes after the administration of the test compound (n=2). The collected blood was allowed to stand at room temperature for about 2 hours and centrifuged for 20 minutes with a centrifuge (KUBOTA KS-5000P) to obtain serum. To the serum was added an equivalent volume of 50% CH3 CN-50 mM phosphate (1:1 by volume) buffer (pH 7.0). The resulting mixture served as a serum sample. The concentration of the test compound in the serum sample was measured by the following bioassay method.
One hundred […] of the serum sample was poured into a hole made on a test plate containing 40 ml of MRAPJ medium (6 g/l peptone, 3 g/l yeast extract, 1.5 g/l meat extract, 1 g/l glucose and 15 g/l agar, pH 6.5) supplemented with a solution of M. Iuteus ATCC9341 (1%) and incubated at 32° C. for 18 hours and MIC was measured based on the calibration curve. MOM, MDM and RKM were also tested for comparison. […] Thus a long-pending problem of "low concentration in serum" of 16-membered macrolide antibiotics has been solved. […] Thus this compound is considered as a macrolide derivative showing new pharmacokinetics.
Further, a pharmacokinetics test on the compound (12) of the present invention is carried out in the same manner as described above. Namely, 200 mg/kg of the compound (12) is orally administered to mice and the concentration of this compound in the serum is determined by a bioassay method with the use of M. luteus as a test strain. […] The disadvantage of 16-membered ring macrolide antibiotics, which has been pointed out for a long time, has been thus overcome.

[5] = recovery in urine after oral administration to mice, bioassay; assay type: in vivo; details: mouse, 200 mg/kg oral (compound (3)), urine 4 and 24 hours
Procedure: Subsequently, 200 mg/kg of the compound (3) was orally administered to three mice in the same manner as described above.
The three mice were put in a metabolic cage MM type (Sugiyamagen Company, Tokyo, Japan) and urine was collected 4 and 24 hours after the administration of the test compound. The collected urine was filtered through a filter having a pore size of 0.45 μm (Millipore) and was mixed with an equivalent volume of 50% CH3CN-50 mM phosphate (1:1 by volume) buffer (pH 6.5) to serve as a urine sample. The bioassay was carried out in the same manner as described above to determine the concentration of the test compound in the urine sample. The recovering in the urine was calculated according to the following equation. [formula]

[6] = pharmacokinetics of midecamycins after oral administration to mice; assay type: in vivo
Excerpt: First, the present inventors discussed effects of a difference in the structure at the 9-position among midecamycin analogues, from among 16-membered macrolide compounds, on pharmacokinetics. That is to say, midecamycin A1 having a hydroxyl group at the 9-position (Medemycin; MDM) [Journal of Antibiotics, 24 (7), 452 (1971)] and midecamycin A3 having a carbonyl group at the 9-position [ibid., 24 (7), 476 (1971)] were orally administered to animals (mice), followed by observing the pharmacokinetics.

Row | Compound | MIC (B. catarrhalis W-0500) | MIC (B. catarrhalis W-0506) | MIC (E. coli NIHJ JC-2) | MIC (E. faecalis W-73) | MIC (H. influenzae 9334) | MIC (K. pneumoniae PC1602) | MIC (M. pneumoniae FH) | MIC (M. pneumoniae Mac) | MIC (M. pneumoniae Numata) | MIC (S. Pneumoniae Type 1) | MIC (S. Pyogenes Cook) | MIC (S. aureus 209P JC-1) | MIC (S. aureus M126) | MIC (S. aureus M133) | MIC (S. aureus MS15009/pMS98) | MIC (S. aureus MS15009/pMS99) | MIC (S. aureus MS15026) | MIC (S. aureus MS15027) | MIC (S. epidermidis ATCC14990) | further results
1 | CCC(=O)O[C@@H]1CC(=O)O[C@H](C)C/C=C/C=C/C(=O)[C@H](C)C[C@H](CC=O)[C@H](O[C@@H]2O[C@H](C)[C@@H](O[C@H]3C[C@@](C)(OC)[C@@H](OCCC(C)C)[C@H](C)O3)[C@H](N(C)C)[C@H]2O)[C@H]1OC [4"-O-depropionyl-4"-O-isoamyl-3"-O-methylmidecamycin A3] |  |  |  |  |  |  |  |  |  |  |  |  |  |  |  |  |  |  |  | maximum concentration in serum compared with marketed 16-membered macrolide antibiotics [1]: clearly improved; recovery in urine compared with marketed 16-membered macrolide antibiotics [1]: clearly improved; antimicrobial activity compared with MOM [2]: enhanced antimicrobial activity; attack of the mycarose moiety by esterase (esterase): scarcely attacked by esterase
2 | CCCCCCO[C@H]1[C@H](C)O[C@@H](O[C@H]2[C@H](N(C)C)[C@@H](O)[C@H](O[C@H]3[C@@H](CC=O)C[C@@H](C)[C@@H](O)/C=C/C=C/C[C@@H](C)OC(=O)C[C@@H](OC(=O)CC)[C@@H]3OC)O[C@@H]2C)C[C@@]1(C)OC [(5)] | 1.56 µg/mL (≈ 1.82 µM) | 1.56 µg/mL (≈ 1.82 µM) | > 100 µg/mL | 3.13 µg/mL (≈ 3.66 µM) | 6.25 µg/mL (≈ 7.3 µM) | > 100 µg/mL | 1.56 µg/mL (≈ 1.82 µM) | 0.2 µg/mL (≈ 0.234 µM) | 0.05 µg/mL (≈ 0.0584 µM) | 0.2 µg/mL (≈ 0.234 µM) | 0.2 µg/mL (≈ 0.234 µM) | 0.39 µg/mL (≈ 0.456 µM) | > 100 µg/mL | 1.56 µg/mL (≈ 1.82 µM) | 0.78 µg/mL (≈ 0.911 µM) | > 100 µg/mL | > 100 µg/mL | 1.56 µg/mL (≈ 1.82 µM) | 1.56 µg/mL (≈ 1.82 µM) | MIC (M. luteus ATCC9341; ATCC9341, 20 h): 0.1 µg/mL (≈ 0.117 µM); MIC (M. pneumoniae FH-P24): 0.2 µg/mL (≈ 0.234 µM); MIC (S. pneumoniae IP692; IP692, 20 h): 0.2 µg/mL (≈ 0.234 µM); antimicrobial activities on Gram-positive bacteria and Mycoplasma [3]: strong antimicrobial activities; extent of metabolism (metabolism in plasma): hardly metabolized; degree of loss of the antimicrobial activity in the plasma compared with MOM (M. luteus): lower than that of MOM; duration of antimicrobial activity in rat plasma (M. luteus): extremely long-acting in rat plasma
3 | CCC(=O)O[C@@H]1CC(=O)O[C@H](C)C/C=C/C=C/[C@H](O)[C@H](C)C[C@H](CC=O)[C@H](O[C@@H]2O[C@H](C)[C@@H](O[C@H]3C[C@@](C)(O)[C@@H](OC(=O)CC)[C@H](C)O3)[C@H](N(C)C)[C@H]2O)[C@H]1OC [MDM, midecamycin A1, reference compound] | 3.13 µg/mL (≈ 3.85 µM) | 1.56 µg/mL (≈ 1.92 µM) | > 100 µg/mL | 3.13 µg/mL (≈ 3.85 µM) | 3.13 µg/mL (≈ 3.85 µM) | > 100 µg/mL | 1.56 µg/mL (≈ 1.92 µM) | 0.1 µg/mL (≈ 0.123 µM) | 0.05 µg/mL (≈ 0.0614 µM) | 0.39 µg/mL (≈ 0.479 µM) | 0.2 µg/mL (≈ 0.246 µM) | 0.39 µg/mL (≈ 0.479 µM) | > 100 µg/mL | 0.78 µg/mL (≈ 0.958 µM) | 0.39 µg/mL (≈ 0.479 µM) | > 100 µg/mL | > 100 µg/mL | 0.78 µg/mL (≈ 0.958 µM) | 1.56 µg/mL (≈ 1.92 µM) | MIC (M. luteus ATCC9341; M. luteus ATCC9341, 37° C., 20 hours): 0.05 µg/mL (≈ 0.0614 µM); MIC (M. pneumoniae FH-P24; M. pneumoniae FH-P24): 0.1 µg/mL (≈ 0.123 µM); MIC (S. pneumoniae IP692; S. pneumoniae IP692, 37° C., 20 hours): 0.39 µg/mL (≈ 0.479 µM); Cmax [4]: 5200 ng/mL; dose excreted at 24 h [5]: < 2%; recovery in urine compared with midecamycin A3 [6]: superior to midecamycin A3; sustained concentration in serum compared with midecamycin A3 [6]: superior to midecamycin A3
